Key:
CDK4/Cyclin D1 = molecular target: T1, CDK4/Cyclin D1 (Homo sapiens, UniProt P11802); test: CDK inhibition assay (Scintillation Proximity Assay, GST-Retinoblastoma substrate); assay type: biochemical; conditions: in-vitro SPA kinase assay, CDK4/Cyclin D1, GST-Rb substrate; read-out: CDK4 inhibitory activity IC50
T1 construct: CDK4 amino acids 1–303; made in house; host or cells: Sf21 (Spodoptera frugiperda) insect cells, baculovirus co-infection, vector pVL1393
Method: The compounds were tested in an in vitro kinase assay in 96 well format using Scintillation Proximity Assay (SPA—obtained from Amersham) for measuring incorporation of [γ-33-P]-Adenosine Triphosphate into a test substrate (GST-Retinoblastoma). In each well was placed the compound to be tested (diluted in DMSO and water to correct concentrations) and in control wells either p16 as an inhibitor control or DMSO as a positive control.
Approximately 0.5 μl of CDK4/Cyclin D1 partially-purified enzyme (amount dependent on enzyme activity) diluted in 25 μl incubation buffer was added to each well then 20 μl of GST-Rb/ATP/ATP33 mixture (containing 0.5 μg GST-Rb and 0.2 μM ATP and 0.14 μCi [γ-33-P]-Adenosine Triphosphate), and the resulting mixture shaken gently, then incubated at room temperature for 60 minutes.
To each well was then added 150 μL stop solution containing (0.8 mg/well of Protein A-PVT SPA bead (Amersham)), 20 pM/well of Anti-Glutathione Transferase, Rabbit IgG (obtained from Molecular Probes), 61 mM EDTA and 50 mM HEPES pH 7.5 containing 0.05% sodium azide.
The plates were sealed with Topseal-S plate sealers, left for two hours then spun at 2500 rpm, 1124×g., for 5 minutes. The plates were read on a Topcount for 30 seconds per well. […]

[1] = molecular target: T2, human Focal Adhesion Kinase (FAK) (Homo sapiens, UniProt Q05397); test: FAK3 kinase inhibition assay (in vitro enzyme ELISA); assay type: biochemical; conditions: Poly (Glu, Ala, Tyr) substrate, read-out: FAK inhibitory activity IC50
T2 construct: FAK (full length human cDNA described by Andre et al); made in house; host or cells: Sf21 (Spodoptera frugiperda) insect cells, baculovirus (pFastbac 1)
T2 sequence (Q05397 whole entry): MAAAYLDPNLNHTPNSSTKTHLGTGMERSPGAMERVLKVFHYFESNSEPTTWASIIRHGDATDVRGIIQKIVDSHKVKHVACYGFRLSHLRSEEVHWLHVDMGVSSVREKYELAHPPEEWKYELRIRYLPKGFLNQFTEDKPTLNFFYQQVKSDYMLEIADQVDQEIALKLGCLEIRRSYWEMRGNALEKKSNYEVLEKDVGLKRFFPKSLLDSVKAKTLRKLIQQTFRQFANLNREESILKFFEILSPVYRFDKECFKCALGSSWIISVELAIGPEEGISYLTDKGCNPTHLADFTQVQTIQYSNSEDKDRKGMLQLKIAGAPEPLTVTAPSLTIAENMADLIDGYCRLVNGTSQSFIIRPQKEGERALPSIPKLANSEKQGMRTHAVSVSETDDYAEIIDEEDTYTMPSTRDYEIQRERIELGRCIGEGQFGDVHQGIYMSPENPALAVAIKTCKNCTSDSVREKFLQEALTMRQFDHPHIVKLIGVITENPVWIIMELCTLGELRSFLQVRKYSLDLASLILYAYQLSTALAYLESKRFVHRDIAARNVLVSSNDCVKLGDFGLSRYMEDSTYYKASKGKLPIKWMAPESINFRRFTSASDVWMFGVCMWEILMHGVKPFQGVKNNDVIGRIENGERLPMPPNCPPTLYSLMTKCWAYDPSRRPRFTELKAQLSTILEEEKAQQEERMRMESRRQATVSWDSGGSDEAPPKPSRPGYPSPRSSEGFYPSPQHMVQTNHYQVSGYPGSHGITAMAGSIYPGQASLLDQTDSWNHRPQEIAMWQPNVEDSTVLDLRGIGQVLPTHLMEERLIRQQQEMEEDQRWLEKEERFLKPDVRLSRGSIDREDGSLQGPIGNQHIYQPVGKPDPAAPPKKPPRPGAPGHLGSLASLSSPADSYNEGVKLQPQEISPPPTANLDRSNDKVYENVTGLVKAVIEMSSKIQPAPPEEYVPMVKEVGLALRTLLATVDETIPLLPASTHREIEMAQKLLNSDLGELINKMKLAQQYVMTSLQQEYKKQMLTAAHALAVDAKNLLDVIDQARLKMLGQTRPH
Method: A stock of substrate solution was prepared from a random copolymer containing tyrosine, for example Poly (Glu, Ala, Tyr) 6:3:1 (Sigma P3899), stored as 1 mg/ml stock in PBS at −20° C. and diluted 1 in 500 with PBS for plate coating.
The liquid was then discarded and the wells were washed twice with PBST.

T1 sequence (P11802 whole entry, the tested form may be a part): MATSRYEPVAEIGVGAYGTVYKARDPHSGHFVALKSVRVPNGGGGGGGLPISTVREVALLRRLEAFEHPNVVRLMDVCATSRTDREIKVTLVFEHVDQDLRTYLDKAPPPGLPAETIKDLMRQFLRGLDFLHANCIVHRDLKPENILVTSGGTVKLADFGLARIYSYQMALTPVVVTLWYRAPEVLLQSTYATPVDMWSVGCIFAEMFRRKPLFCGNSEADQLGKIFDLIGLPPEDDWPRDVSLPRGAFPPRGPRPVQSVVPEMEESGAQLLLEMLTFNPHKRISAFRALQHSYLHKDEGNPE
T1 sequence (P24385 whole entry partner, the tested form may be a part): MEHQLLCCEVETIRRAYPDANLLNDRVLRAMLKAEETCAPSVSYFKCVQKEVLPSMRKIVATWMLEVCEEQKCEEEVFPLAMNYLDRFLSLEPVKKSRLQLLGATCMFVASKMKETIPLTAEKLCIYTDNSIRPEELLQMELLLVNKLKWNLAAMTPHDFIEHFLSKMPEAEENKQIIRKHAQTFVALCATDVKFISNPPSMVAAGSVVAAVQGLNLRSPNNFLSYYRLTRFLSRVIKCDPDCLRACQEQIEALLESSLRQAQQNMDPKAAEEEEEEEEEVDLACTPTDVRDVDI

CN(C)CC(O)COc1ccc(Nc2nccc(Nc3cc(Cl)ccc3Cl)n2)cc1 (stereo not drawn) [Example 11, 2-{4-[3-(N,N-Dimethyl)amino-2-hydroxy-propoxy]anilino}-4-(2,5-dichloroanilino)pyrimidine]
IC50 (CDK4/Cyclin D1): 530 nM

Cc1ccc(Nc2ccnc(Nc3ccc(OCC(O)CN(C)C)cc3)n2)c(Br)c1 (stereo not drawn) [Example 3, 2-{4-[3-(N,N-Dimethyl)amino-2-hydroxy-propoxy]anilino}-4-(2-bromo-4-methylanilino)pyrimidine]
IC50 [1]: 3300 nM | IC50 (CDK4/Cyclin D1): 600 nM
